In patent US8916577B2, “Tricyclic derivatives, process for their preparation and their use as kinase inhibitors” (Nerviano Medical Sciences S.R.L., priority 2011, dated 2014) one finds IC50 data, which are given here for 13 compounds.

Where a name gives a salt, the structure may show the parent alone.

MPS1, sequence (P33981 2-857): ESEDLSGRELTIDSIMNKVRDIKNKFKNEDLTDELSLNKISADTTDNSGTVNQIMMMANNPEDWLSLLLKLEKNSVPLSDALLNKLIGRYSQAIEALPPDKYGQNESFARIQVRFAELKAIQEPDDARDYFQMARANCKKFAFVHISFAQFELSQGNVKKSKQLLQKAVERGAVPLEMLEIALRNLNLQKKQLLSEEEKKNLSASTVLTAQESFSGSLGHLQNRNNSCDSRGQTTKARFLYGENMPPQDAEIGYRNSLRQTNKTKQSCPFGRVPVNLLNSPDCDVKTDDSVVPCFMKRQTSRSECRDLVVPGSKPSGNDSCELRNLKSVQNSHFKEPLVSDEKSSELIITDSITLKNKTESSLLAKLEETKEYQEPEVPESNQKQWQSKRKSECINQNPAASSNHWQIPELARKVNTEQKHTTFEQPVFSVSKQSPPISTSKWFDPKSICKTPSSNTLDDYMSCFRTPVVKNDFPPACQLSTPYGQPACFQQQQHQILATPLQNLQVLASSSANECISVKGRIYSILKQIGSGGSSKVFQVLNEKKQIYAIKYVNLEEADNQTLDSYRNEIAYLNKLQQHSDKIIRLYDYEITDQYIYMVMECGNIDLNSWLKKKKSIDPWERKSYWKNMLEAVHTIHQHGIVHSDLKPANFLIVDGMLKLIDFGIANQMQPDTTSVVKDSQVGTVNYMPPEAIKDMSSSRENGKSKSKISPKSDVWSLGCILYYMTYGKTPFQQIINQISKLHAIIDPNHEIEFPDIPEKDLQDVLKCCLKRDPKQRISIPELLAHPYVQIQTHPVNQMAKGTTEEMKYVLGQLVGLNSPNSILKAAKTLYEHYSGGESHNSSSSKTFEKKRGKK

This assay concerns the target MPS1 (Homo sapiens (Human), UniProt P33981). The assay can be described thus: Biochemical assay for inhibitors of MPS1 kinase activity (33P-ATP trans-phosphorylation, Dowex). The following applies: 5 nM MPS1, 15 microM ATP, P38-β-tide 200 microM. The text has this: Cloning, Expression and Purification of Recombinant MPS1 Full Length Protein.
MPS1 full length (corresponding to residues 2-857 of the full length sequence, see Swiss-Prot accession number P33981) was PCR amplified from the full-length human MPS1 gene present in house as clone pGEX4t_MPS1.
Baculoviruses were generated by cotransfecting Sf9 insect cells with the expression vector and the viral DNA using the BaculoGold® transfection kit (Pharmingen). Viral supernatant was recovered after 5 days and subjected to 3 rounds of amplification to increase viral titer. Recombinant protein was produced by infecting High5 insect cells. After 72 hours of infection at 21° C., cells were recovered, pelletted and freezed at −80° C. For purification of recombinant protein, pellet was thawed, resuspended in lysis buffer (PBS, NaCl 150 mM, Glycerol 10%, CHAPS 0.1%, DTT 20 mM, protease and phosphatase inhibitors) and lysed by Gaulin. Lysate was cleared by centrifugation and loaded on a GST affinity column. After extensive wash, recombinant protein was cleaved by a specific protease and eluted by incubation.
To get a fully activated enzyme, the protein was then subjected to auto-phosphorylation in presence of ATP 1 mM at 25° C. for 2 hours in kinase buffer (Hepes pH7.5 50 mM, MgCl2 2.5 mM, MnCl2 1 mM, DTT 1 mM, phosphatase inhibitors); ATP was then removed whit a desalting column.
Biochemical Assay for Inhibitors of MPS1 Kinase Activity
The inhibitory activity of putative kinase inhibitors and the potency of selected compounds were determined using a trans-phosphorylation assay.
Specific peptide or protein substrates are trans-phosphorylated by their specific ser-thr or tyr kinase in the presence of ATP traced with ^33P-γ-ATP, and in the presence of their own optimal buffer and cofactors.
At the end of the phosphorylation reaction, more than 98% unlabeled ATP and radioactive ATP is captured by an excess of the ion exchange dowex resin; the resin then settles down to the bottom of the reaction plate by gravity.
Supernatant is subsequently withdrawn and transferred into a counting plate, then evaluated by P-counting.
The buffer for MPS1 assay was composed of HEPES 50 mM, at pH 7.5, with 2.5 mM MgCl2, 1 mM MnCl2, 1 mM DTT, 3 microM Na3VO4, 2 mM P-glycerophosphate and 0.2 mg/mL BSA.
The assay was run with a final concentration MPS1 of 5 nM, in the presence of 15 microM ATP and 1.5 nM ^33P-γ-ATP; the substrate was P38-β-tide, used at 200 microM.
The test mix consisted of:
1) 3× Enzyme mix (done in Kinase Buffer 3×), 5 microL/well
2) 3× substrate and ATP mix (done in ddH2O), together with ^33P-γ-ATP, 5 microL/well
3) 3× test compounds (diluted into ddH2O—3% DMSO)—5 microL/well
a) for percent inhibition studies (HTS), individual dilution plates at 1 mM are diluted at a 3× concentration (30 microM) in ddH2O (3% DMSO=final concentration) using a Beckman NX automated pipetting platform. The same instrument is used for distributing the diluted mother plates into the test plates. b) for IC50 determination (KSS platform), 100 μl of each compound at 1 mM in 100% DMSO are transferred from the original plate into the first column of another 96 well plate (A1 to G1); well H1 is left empty for the internal standard inhibitor, usually staurosporine.
An automated station for serial dilutions (Biomek FX, Beckman) is used for producing 1:3 dilutions in 100% DMSO, from line A1 to A10, and for all the seven compounds in the column. Moreover, 4-5 copies of daughter plates are prepared by reformatting 5 microL of this first set of 100% DMSO dilution plates into 384 deep well-plates: one copy of the daughter plates with the serial dilutions of test compounds will be thaw the day of the experiments, reconstituted at a 3× concentration with water and used in the IC50 determination assays. In a standard experiment, the highest concentration (3×) of all compounds is 30 microM, while the lowest one is 1.5 nM. […]
In the case of `CNC(=O)c1nn(C)c2c1CCCc1cnc(Nc3ccc(Br)cc3OC)nc1-2` [Compound 32, 9-[(4-bromo-2-methoxyphenyl)amino]-N,1-dimethyl-1,4,5,6-tetrahydropyrazolo[4′,3′:6,7]cyclohepta[1,2-d]pyrimidine-3-carboxamide], the midpoint of inhibition, the IC50, lay at 277 nM. In other words, the sub-micromolar range.

Take `CCc1cccc(C)c1NC(=O)c1nn(C)c2c1CCCc1cnc(Nc3ccc(N4CCN(C)CC4)cc3OC)nc1-2` [Compound 27, N-(2-ethyl-6-methylphenyl)-9-{[2-methoxy-4-(4-methylpiperazin-1-yl)phenyl]amino}-1-methyl-1,4,5,6-tetrahydropyrazolo[4′,3′:6,7]cyclohepta[1,2-d]pyrimidine-3-carboxamide]: the IC50 (usually the concentration that inhibits the measured activity by half) worked out at 189 nM. This IC50 and that of the compound before are within 1.5-fold of each other. The same measure for `CCc1cccc(CC)c1NC(=O)c1nn(C)c2c1CCCc1cnc(Nc3ccc(N4CCN(C)CC4)cc3OC)nc1-2` [Compound 4, N-(2,6-diethylphenyl)-9-{[2-methoxy-4-(4-methylpiperazin-1-yl)phenyl]amino}-1-methyl-1,4,5,6-tetrahydropyrazolo[4′,3′:6,7]cyclohepta[1,2-d]pyrimidine-3-carboxamide]: 184 nM; for `CCc1cccc(CC)c1NC(=O)c1nn(CC(F)(F)F)c2c1CCCc1cnc(Nc3ccc(N4CCN(C)CC4)cc3OC)nc1-2` [Compound 56, N-(2,6-diethylphenyl)-9-{[2-methoxy-4-(4-methylpiperazin-1-yl)phenyl]amino}-1-(2,2,2-trifluoroethyl)-1,4,5,6-tetrahydropyrazolo[4′,3′:6,7]cyclohepta[1,2-d]pyrimidine-3-carboxamide]: 862 nM; for `COc1cc(N2CCN(C)CC2)ccc1Nc1ncc2c(n1)-c1c(c(C(=O)Nc3ccccc3)nn1C)CCC2` [Compound 8, 9-{[2-methoxy-4-(4-methylpiperazin-1-yl)phenyl]amino}-1-methyl-N-phenyl-1,4,5,6-tetrahydropyrazolo[4′,3′:6,7]cyclohepta[1,2-d]pyrimidine-3-carboxamide]: 353 nM.

In turn, `CCc1cccc(CC)c1NC(=O)c1c2c(nn1C)-c1nc(Nc3ccc(N4CCN(C)CC4)cc3OC)ncc1CCC2` [Compound 97, N-(2,6-diethylphenyl)-9-{[2-methoxy-4-(4-methylpiperazin-1-yl)phenyl]amino}-2-methyl-2,4,5,6-tetrahydropyrazolo[4′,3′:6,7]cyclohepta[1,2-d]pyrimidine-3-carboxamide] returned an IC50 of 853 nM. Under `CCc1cccc(CC)c1NC(=O)c1nn(C)c2c1CCCc1cnc(Nc3ccc(C(=O)N4CCCN(C)CC4)cc3OC(F)(F)F)nc1-2` [Compound 43, N-(2,6-diethylphenyl)-1-methyl-9-({4-[(4-methyl-1,4-diazepan-1-yl)carbonyl]-2-(trifluoromethoxy)phenyl}amino)-1,4,5,6-tetrahydropyrazolo[4′,3′:6,7]cyclohepta[1,2-d]pyrimidine-3-carboxamide] stands 199 nM. Under `COc1cc(Br)ccc1Nc1ncc2c(n1)-c1c(c(C(N)=O)nn1C)CCC2` [Compound 1, 9-[(4-bromo-2-methoxyphenyl)amino]-1-methyl-1,4,5,6-tetrahydropyrazolo[4′,3′:6,7]cyclohepta[1,2-d]pyrimidine-3-carboxamide] stands 421 nM; under `CCc1cccc(CC)c1NC(=O)c1noc2c1CCCc1cnc(Nc3ccc(N4CCN(C)CC4)cc3OC)nc1-2` [Compound 99, N-(2,6-diethylphenyl)-9-{[2-methoxy-4-(4-methylpiperazin-1-yl)phenyl]amino}-5,6-dihydro-4H-isoxazolo[4′,5′:6,7]cyclohepta[1,2-d]pyrimidine-3-carboxamide], 134 nM. In the case of `CCc1cccc(CC)c1NC(=O)c1onc2c1CCCc1cnc(Nc3ccc(N4CCN(C)CC4)cc3OC)nc1-2` [Compound 101, N-(2,6-diethylphenyl)-9-{[2-methoxy-4-(4-methylpiperazin-1-yl)phenyl]amino}-5,6-dihydro-4H-isoxazolo[4′,3′:6,7]cyclohepta[1,2-d]pyrimidine-3-carboxamide], the IC50 was found to be 308 nM. The same measure for `CCc1cccc(CC)c1NC(=O)c1nn(C)c2c1CCCc1cnc(Nc3ccc(C(=O)NC4CCN(C)CC4)cc3OC)nc1-2` [Compound 35, N-(2,6-diethylphenyl)-9-({2-methoxy-4-[(1-methylpiperidin-4-yl)carbamoyl]phenyl}amino)-1-methyl-1,4,5,6-tetrahydropyrazolo[4′,3′:6,7]cyclohepta[1,2-d]pyrimidine-3-carboxamide]: 66 nM; for `CCc1cccc(CC)c1NC(=O)c1nn(CCO)c2c1CCCc1cnc(Nc3ccc(N4CCC(N(C)C)CC4)cc3OC)nc1-2` [Compound 71, N-(2,6-diethylphenyl)-9-({4-[4-(dimethylamino)piperidin-1-yl]-2-methoxyphenyl}amino)-1-(2-hydroxyethyl)-1,4,5,6-tetrahydropyrazolo[4′,3′:6,7]cyclohepta[1,2-d]pyrimidine-3-carboxamide trifluoroacetate]: 174 nM; for `COc1cc(N2CCN(C)CC2)ccc1Nc1ncc2c(n1)-c1c(c(C(=O)NC3CCCCC3)nn1C)CCC2` [Compound 28, N-cyclohexyl-9-{[2-methoxy-4-(4-methylpiperazin-1-yl)phenyl]amino}-1-methyl-1,4,5,6-tetrahydropyrazolo[4′,3′:6,7]cyclohepta[1,2-d]pyrimidine-3-carboxamide]: 249 nM.
